In patent US9346770B2, “Compounds having activating effect on subtypes of peroxisome proliferator-activated receptors and its preparation method and uses” (ZHEJIANG HISUN PHARMACEUTICAL CO., LTD., priority 2010, dated 2016):

How the values were obtained:
Type in all cases: cell-based
PPARα = PPARα (Homo sapiens (Human), UniProt Q07869); test: Nuclear receptor reporter gene (luciferase) screening model, PPARα activation in HepG2 cells; conditions: for Experiment results (relative activation fold) PPARα: HepG2, solvent control = 1; for EC50: HepG2 reporter gene, 6 concentrations; for activation effect on PPARα receptor (in words): screening results
Text: (§1) Using a reporter gene method, a screening model for screening a nuclear receptor agonist in living cells is designed on the basis of the principal that a nuclear receptor can activate transcription of its downstream gene after being activated. A reporter gene plasmid is constructed, in which the DNA binding sequence for the nuclear receptor (NRE) is inserted at the upstream of a luciferase gene, such that the expression of the luciferase gene is regulated by the nuclear receptor. The reporter gene plasmid is transferred into a cell simultaneously with the nuclear receptor. The nuclear receptor will be activated when a nuclear receptor agonist presents in the cell culture medium. The receptor being activated can induce the expression of the luciferase gene, while the amount of generated luciferase can be determined with its luminescent substrate. In this way, the intensity of activation of the nuclear receptor by the compound can be determined by observing the luminescence intensity. For the calibration of the experimental error caused by factors such as transfection efficiency, amount of inoculated cells, toxicity of the compound, etc, a GFP plasmid is co-transfected simultaneously as the internal reference. In the analysis of the experimental results, the luminescent values tested for all wells are calibrated with GFP values. The experimental results are expressed as relative activation fold, with a value of 1 for the solvent control. The greater the fold is, the higher the activation capacity represents.
(§2) The detailed procedure is described as follows:
(§3) Hepatocarcinoma cell HepG2 (from ATCC, American Type Culture Collection) was cultured in a DMEM medium supplemented with 10% heat-inactivated fetal bovine serum (FBS, Invitogen, Grand Island, N.Y., USA) in a T-75 culture flask (Greiner, Germany) placed in a 5% CO2 incubator at 37° C. and 100% relative humidity.
(§4) On the next day, when the cells in the 96-well culture plate grew up to 50-80% confluency, cell transfection was performed. The cell co-transfection system comprised FuGene6 transfection agent (Roche Molecular Biochemicals, Indianapolis, Ind., U.S.A.) and 60 ng DNA (10 ng hRXR, 10 ng pCMV βGal, 10 ng nuclear receptor expression plasmid RXR/PPARα, δ, γ, 30 ng GFP fluorescence reporter gene plasmid, respectively).
(§5) The cell culture medium was discarded immediately after 24 hours of transfection and replaced by 200 μl fresh DMEM medium containing the test medicament (with 10% FBS treated by activated carbon). The final concentration gradients of the test medicament were 10 μM, 5 μM, 1 μM, 0.1 μM, 0.01 μM, 0.001 μM, and 0 μM. 0.05 μM 2-bromostearic acid (purchased from Sigma, USA) was used as the positive control. The final concentration of DMSO in each well was 0.1%.
(§6) After 24 h treatment with the medicament, the cells were lysed with a lysis solution (Cell Culture Lysis buffer, Promega) and centrifuged, and the supernatant was collected. The supernatant was reacted with a fluorescence assay kit (Promega) and counted by a fluorometer (Ascent Fluoroskan FL reader, Thermo Labsystems, Finland), and the relative intensity of luciferase was determined. For the assay of the β-galactosidase activity used in the experiment as the internal reference (the internal reference for calibrating the transfection efficiency), 50 μl of the supernatant was transferred into a fresh microplate, treated with a Promega kit, and the value was read with a microplate reader at a wavelength of 405 nm (Bio-tech Instruments Inc., Winooski, Vt., USA) (Sauerberg, P.; Olsen, G. S.; Jeppesen, L.; Mogensen, J. P. et al., J. Med. Chem., 2007, 50, 1495-1503).
(§7) In the present screening protocol, it was calculated according to the activation of the receptor by the sample at 6 different concentrations.
(§8) The concentration-activity profile of the effects of a compound was fitted by carrying out iterative computation according to the following formula, and corresponding EC50 was calculated: […]

PPARδ = PPARδ (Homo sapiens (Human), UniProt Q03181); test: Nuclear receptor reporter gene (luciferase) screening model, PPARδ activation in HepG2 cells; conditions: for Experiment results (relative activation fold) PPARδ: HepG2, solvent control = 1; for EC50: HepG2 reporter gene, 6 concentrations; for activation effect on PPARδ receptor (in words): screening results
Text: as §1, §2, §3, §4, §5, §6, §7, §8

PPARγ = PPARγ (Homo sapiens (Human), UniProt P37231); test: Nuclear receptor reporter gene (luciferase) screening model, PPARγ activation in HepG2 cells; conditions: for Experiment results (relative activation fold) PPARγ: HepG2, solvent control = 1; for EC50: HepG2 reporter gene, 6 concentrations; for activation effect on PPARγ receptor (in words): screening results
Text: as §1, §2, §3, §4, §5, §6, §7, §8

PPARα, sequence (Q07869 whole entry, species assumed): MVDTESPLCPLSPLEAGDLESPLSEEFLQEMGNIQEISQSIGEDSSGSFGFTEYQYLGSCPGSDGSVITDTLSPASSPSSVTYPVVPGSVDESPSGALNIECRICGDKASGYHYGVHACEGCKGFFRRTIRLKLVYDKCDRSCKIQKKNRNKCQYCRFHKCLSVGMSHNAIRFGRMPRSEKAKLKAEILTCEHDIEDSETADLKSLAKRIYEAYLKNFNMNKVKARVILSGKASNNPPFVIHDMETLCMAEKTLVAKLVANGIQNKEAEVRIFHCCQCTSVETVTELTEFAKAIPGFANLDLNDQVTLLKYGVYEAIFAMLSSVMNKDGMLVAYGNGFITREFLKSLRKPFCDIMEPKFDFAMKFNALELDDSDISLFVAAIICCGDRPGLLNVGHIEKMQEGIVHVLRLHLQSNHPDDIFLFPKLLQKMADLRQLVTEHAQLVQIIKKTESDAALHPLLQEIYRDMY
PPARα, sequence (P19793 whole entry partner, species assumed): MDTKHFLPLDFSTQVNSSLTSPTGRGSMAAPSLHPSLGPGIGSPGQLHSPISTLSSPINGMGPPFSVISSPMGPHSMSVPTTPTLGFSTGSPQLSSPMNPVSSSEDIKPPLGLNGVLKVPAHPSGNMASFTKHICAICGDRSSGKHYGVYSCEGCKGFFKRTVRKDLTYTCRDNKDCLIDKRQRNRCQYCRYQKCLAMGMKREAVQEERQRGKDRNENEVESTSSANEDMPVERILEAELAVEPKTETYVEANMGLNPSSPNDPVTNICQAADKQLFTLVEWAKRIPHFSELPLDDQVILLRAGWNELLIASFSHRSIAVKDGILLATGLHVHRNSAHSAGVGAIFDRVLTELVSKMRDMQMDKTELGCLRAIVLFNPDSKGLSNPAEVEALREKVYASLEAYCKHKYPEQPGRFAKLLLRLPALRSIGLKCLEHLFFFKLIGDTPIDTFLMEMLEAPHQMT
PPARδ, sequence (Q03181 whole entry, species assumed): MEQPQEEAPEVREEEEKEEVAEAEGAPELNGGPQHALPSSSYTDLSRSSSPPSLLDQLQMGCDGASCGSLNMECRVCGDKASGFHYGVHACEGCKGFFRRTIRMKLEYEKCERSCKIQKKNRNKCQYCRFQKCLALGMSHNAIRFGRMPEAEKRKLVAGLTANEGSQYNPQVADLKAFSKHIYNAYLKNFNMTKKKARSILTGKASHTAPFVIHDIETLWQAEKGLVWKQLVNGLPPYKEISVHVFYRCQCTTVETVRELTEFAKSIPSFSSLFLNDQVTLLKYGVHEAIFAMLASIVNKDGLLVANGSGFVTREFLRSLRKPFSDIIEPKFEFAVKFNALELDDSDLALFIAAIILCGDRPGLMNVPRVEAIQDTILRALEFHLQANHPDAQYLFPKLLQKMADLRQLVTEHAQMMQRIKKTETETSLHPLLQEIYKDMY
PPARδ, sequence (P19793 whole entry partner, species assumed): as the sequence (P19793 whole entry partner, species assumed) above
PPARγ, sequence (P37231 whole entry, species assumed): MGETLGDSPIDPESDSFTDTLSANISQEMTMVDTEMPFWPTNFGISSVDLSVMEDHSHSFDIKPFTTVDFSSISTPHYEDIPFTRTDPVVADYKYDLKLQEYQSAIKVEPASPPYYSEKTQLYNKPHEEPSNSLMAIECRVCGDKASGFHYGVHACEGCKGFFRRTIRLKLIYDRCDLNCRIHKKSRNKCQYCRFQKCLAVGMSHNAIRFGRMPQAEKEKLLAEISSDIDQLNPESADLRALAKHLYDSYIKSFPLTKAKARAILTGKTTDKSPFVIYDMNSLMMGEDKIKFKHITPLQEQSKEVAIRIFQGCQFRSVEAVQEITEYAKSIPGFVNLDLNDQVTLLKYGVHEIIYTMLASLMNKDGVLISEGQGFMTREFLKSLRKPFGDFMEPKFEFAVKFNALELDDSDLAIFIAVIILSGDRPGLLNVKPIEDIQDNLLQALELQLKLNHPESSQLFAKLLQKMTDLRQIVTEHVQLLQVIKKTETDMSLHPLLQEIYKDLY
PPARγ, sequence (P19793 whole entry partner, species assumed): as the sequence (P19793 whole entry partner, species assumed) above

| Experiment results (relative activation fold) PPARα (PPARα; 0.001 uM) [fold] | Experiment results (relative activation fold) PPARα (PPARα; 0.01 uM) [fold] | Experiment results (relative activation fold) PPARα (PPARα; 0.1 uM) [fold] | Experiment results (relative activation fold) PPARα (PPARα; 1 uM) [fold] | Experiment results (relative activation fold) PPARα (PPARα; 5 uM) [fold] | Experiment results (relative activation fold) PPARα (PPARα; 10 uM) [fold] | EC50 (PPARα) [µM] | Experiment results (relative activation fold) PPARδ (PPARδ; 0.001 uM) [fold] | Experiment results (relative activation fold) PPARδ (PPARδ; 0.01 uM) [fold] | Experiment results (relative activation fold) PPARδ (PPARδ; 0.1 uM) [fold] | Experiment results (relative activation fold) PPARδ (PPARδ; 1 uM) [fold] | Experiment results (relative activation fold) PPARδ (PPARδ; 5 uM) [fold] | Experiment results (relative activation fold) PPARδ (PPARδ; 10 uM) [fold] | EC50 (PPARδ) [µM] | Experiment results (relative activation fold) PPARγ (PPARγ; 0.001 uM) [fold] | Experiment results (relative activation fold) PPARγ (PPARγ; 0.01 uM) [fold] | Experiment results (relative activation fold) PPARγ (PPARγ; 0.1 uM) [fold] | Experiment results (relative activation fold) PPARγ (PPARγ; 1 uM) [fold] | Experiment results (relative activation fold) PPARγ (PPARγ; 5 uM) [fold] | Experiment results (relative activation fold) PPARγ (PPARγ; 10 uM) [fold] | SMILES | also measured |
| --- | --- | --- | --- | --- | --- | --- | --- | --- | --- | --- | --- | --- | --- | --- | --- | --- | --- | --- | --- | --- | --- |
| 1.00 | 1.08 | 1.12 | 1.36 | 1.35 | 1.72 | 0.029 | 1.07 | 1.12 | 1.19 | 1.40 | 1.33 | 1.80 | 0.029 | 1.09 | 1.21 | 1.26 | 1.45 | 1.62 | 2.01 | CCc1cc(OCCc2nc(-c3ccc(F)cc3)oc2C)ccc1CCC(=O)O [Compound 1, 3-(2-ethyl-4-{2-[2-(4-fluorophenyl)-5-methyloxazol-4-yl]ethoxyl}phenyl)propionic acid] | activation effect on PPARα receptor (in words) (PPARα): better activation effects; activation effect on PPARδ receptor (in words) (PPARδ): better activation effects; EC50 (PPARγ): 0.013 µM; activation effect on PPARγ receptor (in words) (PPARγ): better activation effects |
| 1.33 | 1.45 | 1.37 | 1.58 | 1.98 | 1.91 | 1.18 | 1.57 | 2.44 | 3.61 | 3.69 | 3.57 | 4.64 | 0.007 | 1.98 | 2.99 | 3.75 | 3.95 | 3.82 | 4.11 | CCc1cc(OCCc2nc(-c3ccc(C)cc3)oc2C)ccc1CCC(=O)O [Compound 5] | activation effect on PPARα receptor (in words) (PPARα): better activation effects; activation effect on PPARδ receptor (in words) (PPARδ): better activation effects; EC50 (PPARγ): 0.004 µM; activation effect on PPARγ receptor (in words) (PPARγ): better activation effects |
| 1.23 | 1.35 | 1.48 | 1.41 | 1.71 | 1.93 | 5.25 | 1.65 | 2.69 | 3.58 | 3.94 | 4.23 | 4.40 | 0.006 | 1.38 | 2.29 | 3.72 | 4.75 | 4.29 | 4.24 | CCc1cc(OCCc2nc(-c3ccc(C#N)cc3)oc2C)ccc1CCC(=O)O [Compound 8] | EC50 (PPARγ): 0.022 µM |

Continued, compound first:

| SMILES | Experiment results (relative activation fold) PPARα (PPARα; 0.001 uM) [fold] | Experiment results (relative activation fold) PPARα (PPARα; 0.01 uM) [fold] | Experiment results (relative activation fold) PPARα (PPARα; 0.1 uM) [fold] | Experiment results (relative activation fold) PPARα (PPARα; 1 uM) [fold] | Experiment results (relative activation fold) PPARα (PPARα; 5 uM) [fold] | Experiment results (relative activation fold) PPARα (PPARα; 10 uM) [fold] | EC50 (PPARα) [µM] | Experiment results (relative activation fold) PPARδ (PPARδ; 0.001 uM) [fold] | Experiment results (relative activation fold) PPARδ (PPARδ; 0.01 uM) [fold] | Experiment results (relative activation fold) PPARδ (PPARδ; 0.1 uM) [fold] | Experiment results (relative activation fold) PPARδ (PPARδ; 1 uM) [fold] | Experiment results (relative activation fold) PPARδ (PPARδ; 5 uM) [fold] | Experiment results (relative activation fold) PPARδ (PPARδ; 10 uM) [fold] | EC50 (PPARδ) [µM] | Experiment results (relative activation fold) PPARγ (PPARγ; 0.001 uM) [fold] | Experiment results (relative activation fold) PPARγ (PPARγ; 0.01 uM) [fold] | Experiment results (relative activation fold) PPARγ (PPARγ; 0.1 uM) [fold] | Experiment results (relative activation fold) PPARγ (PPARγ; 1 uM) [fold] | Experiment results (relative activation fold) PPARγ (PPARγ; 5 uM) [fold] | Experiment results (relative activation fold) PPARγ (PPARγ; 10 uM) [fold] | also measured |
| --- | --- | --- | --- | --- | --- | --- | --- | --- | --- | --- | --- | --- | --- | --- | --- | --- | --- | --- | --- | --- | --- |
| CCc1cc(OCCc2nc(-c3ccc(C(N)=O)cc3)oc2C)ccc1CCC(=O)O [Compound 9] | 1.25 | 1.17 | 1.32 | 1.56 | 1.63 | 1.81 | 1.15 | 1.18 | 1.40 | 2.25 | 3.38 | 4.08 | 3.92 | 0.331 | 1.09 | 1.51 | 3.20 | 4.34 | 5.04 | 4.26 | EC50 (PPARγ): 0.047 µM |
| CCc1cc(OCCc2coc(-c3ccc(C(F)(F)F)cc3)n2)ccc1CCC(=O)O [Compound 2] | 1.01 | 1.06 | 1.16 | 1.30 | 1.38 | 1.82 | 5.5 | 1.02 | 1.17 | 1.17 | 1.34 | 1.45 | 1.99 | < 0.001 | 1.09 | 1.26 | 1.26 | 1.49 | 1.73 | 2.28 | EC50 (PPARγ): 0.692 µM |
| CCc1cc(OCCc2nc(-c3ccc([N+](=O)[O-])cc3)oc2C)ccc1CCC(=O)O [Compound 7] | 1.15 | 1.32 | 1.42 | 1.55 | 1.66 | 1.94 | 2.88 | 1.66 | 2.72 | 2.99 | 3.70 | 3.60 | 3.38 | 0.003 | 1.29 | 1.86 | 3.30 | 3.80 | 4.08 | 4.35 | EC50 (PPARγ): 0.025 µM |
